# According to ChEMBL document CHEMBL5120765, “Synthesis of novel 1-phenyl-benzopyrrolizidin-3-one derivatives and evaluation of their cytoneuroprotective effects against NMDA-induced injury in PC12 cells” (Bioorg Med Chem, 2022):
# Active and inactive are the calls of the source. No cut-off for these calls is given here.
# Tests used:
# PC-12 [1] = test: Neuroprotective activity against NMDA-induced excitotoxicity in rat PC-12 cells assessed as increase in cell viability at 20 uM pretreated for 24 hr followed by NMDA addition and measured after 6 hrs by MTT assay; format: functional
# PC-12 [2] = test: Neuroprotective activity against NMDA-induced excitotoxicity in rat PC-12 cells assessed as increase in cell viability pretreated for 24 hr followed by NMDA addition and measured after 6 hrs by MTT assay; format: functional, cell-based; conditions: dose 2.5-20 µM, time 30.0 hrs, DDE = dose-dependent effect
# PC-12 [3] = test: Neuroprotective activity against NMDA-induced excitotoxicity in rat PC-12 cells assessed as increase in cell viability at 15 uM pretreated for 24 hr followed by NMDA addition and measured after 6 hrs by MTT assay; format: functional; conditions: time 30 hrs
# PC-12 [4] = test: Inhibition of NMDA-induced Ca2+ influx in rat PC-12 cells assessed as reduction in intracellular Ca2+ concentration at 15 uM pretreated for 24 hr followed by NMDA addition and measured after 6 hrs by Fluo2-AM staining based fluorescence microscopic method; format: functional, cell-based; conditions: time 30.0 hrs
# PC-12 [5] = test: Neuroprotective effect against NMDA-induced rat PC-12 cells assessed as prevention of morphological changes at 15 uM; format: functional, cell-based
# PC-12 [6] = test: Neuroprotective activity against NMDA-induced excitotoxicity in rat PC-12 cells assessed as increase in cell viability at 5 uM pretreated for 24 hr followed by NMDA addition and measured after 6 hrs by MTT assay; format: functional, cell-based; conditions: time 30.0 hrs
smiles,measurement,setting,value
COc1ccc([C@@H]2CC(=O)N3c4ccccc4C[C@H]23)cc1 (racemic),Activity,PC-12 [1]; time 30.0 hrs,Active
O=C1C[C@@H](c2cccc(OCc3ccccc3)c2)[C@H]2Cc3ccccc3N12 (racemic),Activity,PC-12 [1]; time 30.0 hrs,Active
COc1cc(OC)cc([C@@H]2CC(=O)N3c4ccccc4C[C@H]23)c1 (racemic),Activity,PC-12 [1]; time 30.0 hrs,Active
O=C1C[C@@H](c2cccc(OCc3ccccc3)c2)[C@H]2Cc3cc(OCc4ccccc4)ccc3N12 (racemic),Activity,PC-12 [1]; time 30.0 hrs,Active
O=C1C[C@H](c2cccc(OCc3ccccc3)c2)[C@H]2Cc3c(F)cccc3N12 (racemic),Activity,PC-12 [1]; time 30.0 hrs,Active
O=C1C[C@@H](c2cccc(OCc3ccccc3)c2)[C@H]2Cc3c(F)cccc3N12 (racemic),Activity,PC-12 [2],Dde
same,Activity,PC-12 [3],96.16%
same,inhibition,PC-12 [4],Active
same,Activity,PC-12 [5],Active
same,Activity,PC-12 [6],Active
same,Activity,PC-12 [1]; time 30 hrs,94.59%
O=C1C[C@H](c2cccc(OCc3ccccc3)c2)[C@H]2Cc3ccccc3N12 (racemic),Activity,PC-12 [1]; time 30.0 hrs,Active
COc1ccccc1[C@@H]1CC(=O)N2c3ccccc3C[C@H]12 (racemic),Activity,PC-12 [1]; time 30.0 hrs,Active
O=C1C[C@@H](c2ccccc2)[C@H]2Cc3ccccc3N12 (racemic),Activity,PC-12 [1]; time 30.0 hrs,Active
C[C@]12N[C@H](Cc3ccccc31)c1ccccc12.O=C(O)/C=C\C(=O)O [DIZOCILPINE MALEATE],Activity,PC-12 [2],Dde
same,Activity,PC-12 [3],96.96%
same,inhibition,PC-12 [4],Active
same,Activity,PC-12 [5],Active
same,Activity,PC-12 [6],Active
same,Activity,PC-12 [1]; time 30 hrs,95.48%
COc1c(OCc2ccccc2)cccc1[C@@H]1CC(=O)N2c3ccccc3C[C@H]12 (racemic),Activity,PC-12 [1]; time 30.0 hrs,Active
